Data taken from patent publication US8722661B2, “Pyrrolopyrimidone and pyrrolopyridone inhibitors of tankyrase” (Genentech, Inc., priority 2012, dated 2014).

Tests used:
Tankyrase 1 (TNKS1) = biological target: T1, Tankyrase 1 (TNKS1) (Homo sapiens, UniProt O95271); assay: μHTS-TNKS-IWR2 TR-FRET binding assay (TNKS1)
T1 construct: construct: 1088-1327, 1266M
Procedure: (§1) μHTS-TNKS-IWR2TR-FRET Binding Assay
(§2) (10 μL/well in BD1536-well plate, a single point)
Reagents and Stock Solutions
(§3) Biotin-IWR2: 10 mM Biotin-IWR2 stock in DMSO, stored at −20° C.
Assay buffer 1a (AB 1a) for TNKS dilution: 50 mM Tris, pH 7.4, 100 mM sodium chloride solution, 1 mM magnesium chloride solution, 1 mM DL-dithiothreitol solution, 0.2 mg/mL bovine serum albumin solution, 0.025% NP-40.
Assay buffer 1b (AB 1b) for Biotin-IWR2 dilution: 50 mM Tris, pH 7.4, 100 mM sodium chloride solution, 1 mM magnesium chloride solution, 1 mM DL-dithiothreitol solution, 0.2 mg/mL bovine serum albumin solution, 0.05% NP-40
Assay buffer 1c (AB 1c) for compound dilution: 50 mM Tris, pH 7.4, 100 mM sodium chloride solution, 1 mM magnesium chloride solution, 1 mM DL-dithiothreitol solution, 0.2 mg/mL bovine serum albumin solution
Assay buffer 2 (AB2) for Eu/APC: 50 mM Tris, pH 7.4, 100 mM sodium chloride solution, 1 mM magnesium chloride solution, 0.2 mg/mL bovine serum albumin solution
Reagent Stock Solution Preparation
Prepare BLANK well stock solution: 5% DMSO/AB1b buffer
Prepare TNKS1 stock solution (5× stock): 300 nM TNKS in AB1a buffer
(§4) Transfer 3 μL/well above solution (solution 1,2,3) to an empty assay plate (BD1536-well plate) as follows:
TOTL and cpd wells: Solution 1 (Biotin-IWR2):
BLNK wells: Solution 2 (No Biotin-IWR2):
POSITIVE CONTROL wells: Solution 3 (Biotin-IWR2+XAV939)
(§5) Transfer 3 μL/well of the above diluted compound solutions or compound dilution buffer to the above assay plate.
(§6) Add 2 μL/well of 300 nM TNKS stock solution (4) to every well in the above assay plate.
Centrifuge the assay plate at 2100 rpm for 2 minutes.
(§7) Incubate the assay plate at 26° C. for 30 minutes.
(§8) Incubate the assay plate at 26° C. for 60 minutes.

[1] = biological target: T2, PARP1 (His6-PARP1, full length) (Homo sapiens, UniProt P09874); assay: μHTS-TNKS-IWR2 TR-FRET binding assay with His6-PARP1 in place of TNKS1; conditions: Table I
T2 construct: His6-PARP1 (full length)
T2 sequence (P09874 whole entry): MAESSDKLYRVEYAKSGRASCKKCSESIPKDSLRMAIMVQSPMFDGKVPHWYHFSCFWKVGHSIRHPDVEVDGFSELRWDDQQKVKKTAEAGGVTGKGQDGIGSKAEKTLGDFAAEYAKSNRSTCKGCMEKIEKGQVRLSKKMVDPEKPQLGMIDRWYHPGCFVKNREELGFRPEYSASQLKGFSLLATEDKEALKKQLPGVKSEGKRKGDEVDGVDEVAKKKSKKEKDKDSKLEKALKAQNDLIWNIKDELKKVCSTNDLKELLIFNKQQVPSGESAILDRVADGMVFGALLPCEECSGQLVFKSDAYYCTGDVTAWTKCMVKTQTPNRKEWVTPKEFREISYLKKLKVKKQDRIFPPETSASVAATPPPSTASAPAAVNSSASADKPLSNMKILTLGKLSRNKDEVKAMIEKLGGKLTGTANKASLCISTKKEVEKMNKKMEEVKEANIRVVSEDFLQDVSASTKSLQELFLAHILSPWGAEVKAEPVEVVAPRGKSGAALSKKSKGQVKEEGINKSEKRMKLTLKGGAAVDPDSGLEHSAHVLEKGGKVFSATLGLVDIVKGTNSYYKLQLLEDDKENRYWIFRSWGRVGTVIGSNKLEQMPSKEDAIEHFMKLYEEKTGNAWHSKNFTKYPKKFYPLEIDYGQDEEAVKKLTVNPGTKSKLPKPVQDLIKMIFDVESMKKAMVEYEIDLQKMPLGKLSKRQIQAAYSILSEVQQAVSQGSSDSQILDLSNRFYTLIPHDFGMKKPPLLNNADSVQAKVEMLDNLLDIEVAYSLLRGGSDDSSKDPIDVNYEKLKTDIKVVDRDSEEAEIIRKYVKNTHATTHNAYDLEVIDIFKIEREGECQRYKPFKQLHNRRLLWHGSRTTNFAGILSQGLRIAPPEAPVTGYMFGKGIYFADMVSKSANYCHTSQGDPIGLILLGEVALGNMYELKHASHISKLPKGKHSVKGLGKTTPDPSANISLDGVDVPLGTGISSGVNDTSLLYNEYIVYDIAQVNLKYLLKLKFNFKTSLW
Procedure: as §1, §2
(§9) Alternatively, in place of His6-TNKS1 can use either His6-tankyrase 2 (construct: 934-1166) (His6-TNKS2) or His6-PARP1 (full length).
as §3
Positive control: 10 mM […] in DMSO, stored at −20° C.
(§10) Prepare Biotinylated IWR2 stock solution (3.33× stock) for TOTL and cpd wells: 200 nM Biotin-IWR2 in 5% DMSO/AB1b buffer
(§11) Prepare POSITIVE CONTROL well stock solution (3.33× stock): 200 nM XAV939 in 200 nM Biotin-IWR2/5% DMSO/AB1b buffer
(§12) (Alternatively, use TNKS2 or PARP1 stock solutions.)
(§13) Prepare Eu/APC stock solution (5× stock): 3.5 nM Eu-SA/50 nM APC-His6Ab in AB2 buffer
(§14) Add 25 μL/well 1.5% DMSO/AB1c buffer in each compound well to the compound concentration at 74 μM in 8.8% DMSO/AB1c buffer or in the 2 μL DMSO CONTROL wells (BLANK, TOTAL and POSITIVE wells) in the compound plate.
as §4, §5, §6, §7, §8
(§15) Read the assay plate immediately at excitation wavelength of 330 nm and emission wavelength of […] in time resolved fluorescence mode.
(§16) Representative compound data for assays are listed below in Table I. Values are in uM.

tankyrase 2 (His6-TNKS2) = biological target: T3, tankyrase 2 (His6-TNKS2) (Homo sapiens, UniProt Q9H2K2); assay: μHTS-TNKS-IWR2 TR-FRET binding assay with His6-TNKS2 in place of TNKS1; conditions: Table I
T3 construct: His6-tankyrase 2 (construct: 934-1166)
T3 sequence (Q9H2K2 934-1166): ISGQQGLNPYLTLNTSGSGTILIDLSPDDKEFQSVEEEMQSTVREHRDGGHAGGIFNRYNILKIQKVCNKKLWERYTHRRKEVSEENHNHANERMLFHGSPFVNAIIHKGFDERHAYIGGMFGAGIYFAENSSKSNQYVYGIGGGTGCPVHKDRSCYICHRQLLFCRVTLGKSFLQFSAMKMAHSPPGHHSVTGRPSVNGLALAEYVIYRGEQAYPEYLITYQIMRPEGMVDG
Procedure: as §1, §2, §9, §3
Positive control: 10 mM XAV 939 in DMSO, stored at −20° C.
as §10, §11, §12, §13, §14, §4, §5, §6, §7, §8, §15, §16

T1 sequence (O95271 1088-1327): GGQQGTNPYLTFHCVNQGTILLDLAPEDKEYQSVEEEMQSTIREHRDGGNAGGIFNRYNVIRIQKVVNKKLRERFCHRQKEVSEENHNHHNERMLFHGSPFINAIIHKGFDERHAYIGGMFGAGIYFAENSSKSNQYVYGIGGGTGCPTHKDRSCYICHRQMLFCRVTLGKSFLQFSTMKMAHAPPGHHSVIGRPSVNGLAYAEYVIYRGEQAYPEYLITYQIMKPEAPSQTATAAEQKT

Row | Structure (SMILES) | IC50 (Tankyrase 1 (TNKS1)) | IC50 [1] | IC50 (tankyrase 2 (His6-TNKS2))
1 | Cn1ccc2c(=O)[nH]c(N3CCN(c4ccccc4C#N)CC3)nc21 [Example 19, 2-[4-(7-Methyl-4-oxo-4,7-dihydro-3H-pyrrolo[2,3-d]pyrimidin-2-yl)-piperazin-1-yl]-benzonitrile] | 43 nM | 1050 nM | 34 nM
2 | Cn1ccc2c(=O)[nH]c(N3CCN(c4ccc(F)cc4F)CC3)nc21 [Example 20, 2-[4-(2,4-Difluoro-phenyl)-piperazin-1-yl]-7-methyl-3,7-dihydro-pyrrolo[2,3-d]pyrimidin-4-one] | 31 nM | 1220 nM | 36 nM
3 | Cn1ccc2c(=O)[nH]c(N3CCN(c4ccc(S(C)(=O)=O)cc4F)CC3)nc21 [Example 24, 2-[4-(2-Fluoro-4-methanesulfonyl-phenyl)-piperazin-1-yl]-7-methyl-3,7-dihydro-pyrrolo[2,3-d]pyrimidin-4-one] | 35 nM | 1280 nM | 47 nM
4 | Cn1ccc2c(=O)[nH]c(N3CCN(c4cc(C(F)(F)F)ccn4)CC3)nc21 [Example 25, 7-Methyl-2-[4-(4-trifluoromethyl-pyridin-2-yl)-piperazin-1-yl]-3,7-dihydro-pyrrolo[2,3-d]pyrimidin-4-one] | 292 nM | 557 nM | 200 nM
5 | Cn1ccc2c(=O)[nH]c(N3CCN(c4ccc(Cl)c(Cl)c4)CC3)nc21 [Example 26, 2-[4-(3,4-Dichloro-phenyl)-piperazin-1-yl]-7-methyl-3,7-dihydro-pyrrolo[2,3-d]pyrimidin-4-one] | 204 nM | 1250 nM | 153 nM
6 | Cn1ccc2c(=O)[nH]c(N3CCN(c4ccccc4F)CC3)nc21 [Example 28, 2-[4-(2-Fluoro-phenyl)-piperazin-1-yl]-7-methyl-3,7-dihydro-pyrrolo[2,3-d]pyrimidin-4-one] | 40 nM | 3280 nM | 80 nM
7 | Cn1ccc2c(=O)[nH]c(N3CCN(c4ccccc4)CC3)nc21 [Example 29, 7-Methyl-2-(4-phenyl-piperazin-1-yl)-3,7-dihydro-pyrrolo[2,3-d]pyrimidin-4-one] | 43 nM | 732 nM | 45 nM
8 | Cn1ccc2c(=O)[nH]c(N3CCN(c4ccccc4Cl)CC3)nc21 [Example 30, 2-[4-(2-Chloro-phenyl)-piperazin-1-yl]-7-methyl-3,7-dihydro-pyrrolo[2,3-d]pyrimidin-4-one] | 31 nM | 1400 nM | 33 nM
9 | Cn1ccc2c(=O)[nH]c(N3CCN(c4ccc(C#N)cn4)CC3)nc21 [Example 32, 6-[4-(7-Methyl-4-oxo-4,7-dihydro-3H-pyrrolo[2,3-d]pyrimidin-2-yl)-piperazin-1-yl]-nicotinonitrile] | 129 nM | 229 nM | 90 nM
10 | Cn1ccc2c(=O)[nH]c(N3CCN(c4c(Cl)cncc4Cl)CC3)nc21 [Example 34, 2-[4-(3,5-Dichloro-pyridin-4-yl)-piperazin-1-yl]-7-methyl-3,7-dihydro-pyrrolo[2,3-d]pyrimidin-4-one] | 25 nM | 1370 nM | 24 nM
11 | O=c1[nH]c(-c2ccc(C(F)(F)F)cc2)nc2[nH]ccc12 [Example 37, 2-(4-Trifluoromethyl-phenyl)-3,7-dihydro-pyrrolo[2,3-d]pyrimidin-4-one] | 110 nM | 1130 nM | 217 nM
12 | Cn1ccc2c(=O)[nH]c(-c3ccc(C(F)(F)F)cc3)nc21 [Example 38, 7-Methyl-2-(4-trifluoromethyl-phenyl)-3,7-dihydro-pyrrolo[2,3-d]pyrimidin-4-one] | 38 nM | 785 nM | 45 nM

The next lines start with the values.

Row | IC50 (Tankyrase 1 (TNKS1)) | IC50 [1] | IC50 (tankyrase 2 (His6-TNKS2)) | Structure (SMILES)
13 | 466 nM | 229 nM | 427 nM | CC(=O)N1CCN(c2nc3c(ccn3C)c(=O)[nH]2)CC1 [Example 14, 2-(4-Acetyl-piperazin-1-yl)-7-methyl-3,7-dihydro-pyrrolo[2,3-d]pyrimidin-4-one]
14 | 348 nM | 3460 nM | 192 nM | Cn1ccc2c(=O)[nH]c(N3CC(C)(c4ccc(Br)cc4)C3)nc21 [Example 15, 2-[3-(4-Bromo-phenyl)-3-methyl-azetidin-1-yl]-7-methyl-3,7-dihydro-pyrrolo[2,3-d]pyrimidin-4-one]
15 | 915 nM | 1260 nM | 1070 nM | Cn1ccc2c(=O)[nH]c(N3CCC(c4ccccc4)C3)nc21 (stereo not drawn) [Example 16, 7-Methyl-2-(3-phenyl-pyrrolidin-1-yl)-3,7-dihydro-pyrrolo[2,3-d]pyrimidin-4-one]
16 | 27 nM | 1080 nM | 32 nM | Cn1ccc2c(=O)[nH]c(N3CCN(c4ccc(F)cc4)CC3)nc21 [Example 17, 2-[4-(4-Fluoro-phenyl)-piperazin-1-yl]-7-methyl-3,7-dihydro-pyrrolo[2,3-d]pyrimidin-4-one]
17 | 59 nM | 758 nM | 59 nM | Cn1ccc2c(=O)[nH]c(N3CCN(c4cccc(F)c4)CC3)nc21 [Example 18, 2-[4-(3-Fluoro-phenyl)-piperazin-1-yl]-7-methyl-3,7-dihydro-pyrrolo[2,3-d]pyrimidin-4-one]
18 | 81 nM | 612 nM | 90 nM | Cn1ccc2c(=O)[nH]c(N3CCN(c4cccc(C#N)c4)CC3)nc21 [Example 21, 3-[4-(7-Methyl-4-oxo-4,7-dihydro-3H-pyrrolo[2,3-d]pyrimidin-2-yl)-piperazin-1-yl]-benzonitrile]
19 | 97 nM | 453 nM | 74 nM | Cn1ccc2c(=O)[nH]c(N3CCN(c4ccc(C#N)cc4)CC3)nc21 [Example 22, 4-[4-(7-Methyl-4-oxo-4,7-dihydro-3H-pyrrolo[2,3-d]pyrimidin-2-yl)-piperazin-1-yl]-benzonitrile]
20 | 28 nM | 42100 nM | 31 nM | Cn1ccc2c(=O)[nH]c(N3CCN(c4ccccc4C(F)(F)F)CC3)nc21 [Example 23, 7-Methyl-2-[4-(2-trifluoromethyl-phenyl)-piperazin-1-yl]-3,7-dihydro-pyrrolo[2,3-d]pyrimidin-4-one]
21 | 5670 nM | > 50000 nM | 6790 nM | C=CCCn1ccc2c(=O)[nH]c(N3CCN(c4ccccc4Cl)CC3)nc21 [Example 27, 7-But-3-enyl-2-[4-(2-chloro-phenyl)-piperazin-1-yl]-3,7-dihydro-pyrrolo[2,3-d]pyrimidin-4-one]
22 | 155 nM | 318 nM | 133 nM | Cn1ccc2c(=O)[nH]c(N3CCN(c4cnccn4)CC3)nc21 [Example 31, 7-Methyl-2-(2,3,5,6-tetrahydro-[1,2′]bipyrazinyl-4-yl)-3,7-dihydro-pyrrolo[2,3-d]pyrimidin-4-one]
23 | 6180 nM | 1120 nM | 6080 nM | Cn1ccc2c(=O)[nH]c(N3C[C@@H]4C[C@H]3CN4c3cccc(F)c3)nc21 [Example 33, 2-[(1S,4S)-5-(3-Fluoro-phenyl)-2,5-diaza-bicyclo[2.2.1]hept-2-yl]-7-methyl-3,7-dihydro-pyrrolo[2,3-d]pyrimidin-4-one]
24 | 51 nM | 1630 nM | 59 nM | Cn1ccc2c(=O)[nH]c(N3CCN(c4ccccc4F)CC3)cc21 [Example 35, 6-[4-(2-Fluoro-phenyl)-piperazin-1-yl]-1-methyl-1,5-dihydro-pyrrolo[3,2-c]pyridin-4-one]
25 | 273 nM | 21000 nM | 251 nM | CCn1ccc2c(=O)[nH]c(N3CCN(c4ccccc4F)CC3)cc21 [Example 36, 1-Ethyl-6-[4-(2-fluoro-phenyl)-piperazin-1-yl]-1,5-dihydro-pyrrolo[3,2-c]pyridin-4-one]
